Assays:
[1] = tested on: T1, Receptor-type tyrosine-protein kinase FLT3 (Homo sapiens), P36888 [N841I]; conditions: at 10 µM
T1 sequence (whole entry): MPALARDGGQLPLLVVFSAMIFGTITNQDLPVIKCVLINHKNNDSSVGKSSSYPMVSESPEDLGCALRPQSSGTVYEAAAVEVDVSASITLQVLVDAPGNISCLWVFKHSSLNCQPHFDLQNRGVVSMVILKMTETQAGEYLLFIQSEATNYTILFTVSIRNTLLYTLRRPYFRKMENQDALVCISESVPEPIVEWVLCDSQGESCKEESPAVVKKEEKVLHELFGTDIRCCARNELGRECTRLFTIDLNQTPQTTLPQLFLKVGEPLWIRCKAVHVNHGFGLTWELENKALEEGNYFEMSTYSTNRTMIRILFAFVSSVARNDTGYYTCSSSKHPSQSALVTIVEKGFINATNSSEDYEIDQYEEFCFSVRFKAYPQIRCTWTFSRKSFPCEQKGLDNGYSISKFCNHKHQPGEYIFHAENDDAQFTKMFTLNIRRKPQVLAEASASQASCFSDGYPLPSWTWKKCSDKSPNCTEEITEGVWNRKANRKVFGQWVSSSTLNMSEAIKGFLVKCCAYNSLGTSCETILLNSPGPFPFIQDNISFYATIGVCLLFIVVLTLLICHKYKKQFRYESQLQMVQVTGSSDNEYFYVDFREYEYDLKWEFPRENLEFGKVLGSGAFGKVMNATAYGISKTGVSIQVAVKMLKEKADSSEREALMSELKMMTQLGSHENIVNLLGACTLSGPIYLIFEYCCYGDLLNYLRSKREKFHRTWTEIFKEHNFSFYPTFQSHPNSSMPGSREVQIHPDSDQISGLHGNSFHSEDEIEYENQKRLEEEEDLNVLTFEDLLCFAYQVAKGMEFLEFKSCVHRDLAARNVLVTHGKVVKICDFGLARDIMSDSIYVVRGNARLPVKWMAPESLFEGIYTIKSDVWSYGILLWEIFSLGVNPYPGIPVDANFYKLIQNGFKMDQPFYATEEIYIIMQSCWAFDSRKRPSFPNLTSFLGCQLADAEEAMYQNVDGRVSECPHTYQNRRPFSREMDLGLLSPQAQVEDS

[2] = molecular target: Ribosomal protein S6 kinase alpha-4 (Homo sapiens) (UniProt O75676); experiment: Selectivity interaction (KinomeScan (DiscoverX)) EUB0000229b RPS6KA4; conditions: at 10 µM
[3] = molecular target: Tyrosine-protein kinase Fyn (Homo sapiens) (UniProt P06241); experiment: Selectivity interaction (ProQinase) EUB0000171b FYN
[4] = molecular target: T2, 5'-AMP-activated protein kinase catalytic subunit alpha-1 (Homo sapiens, UniProt Q13131); experiment: Selectivity interaction (Kinase panel (Invitrogen)) EUB0000639a PRKAA1; conditions: at 200 nM
[5] = molecular target: T3, Serine/threonine-protein kinase PLK4 (Homo sapiens) (UniProt O00444); experiment: Selectivity interaction (KinomeScan (DiscoverX)) EUB0000695a PLK4; conditions: at 100 nM
T3 sequence (whole entry): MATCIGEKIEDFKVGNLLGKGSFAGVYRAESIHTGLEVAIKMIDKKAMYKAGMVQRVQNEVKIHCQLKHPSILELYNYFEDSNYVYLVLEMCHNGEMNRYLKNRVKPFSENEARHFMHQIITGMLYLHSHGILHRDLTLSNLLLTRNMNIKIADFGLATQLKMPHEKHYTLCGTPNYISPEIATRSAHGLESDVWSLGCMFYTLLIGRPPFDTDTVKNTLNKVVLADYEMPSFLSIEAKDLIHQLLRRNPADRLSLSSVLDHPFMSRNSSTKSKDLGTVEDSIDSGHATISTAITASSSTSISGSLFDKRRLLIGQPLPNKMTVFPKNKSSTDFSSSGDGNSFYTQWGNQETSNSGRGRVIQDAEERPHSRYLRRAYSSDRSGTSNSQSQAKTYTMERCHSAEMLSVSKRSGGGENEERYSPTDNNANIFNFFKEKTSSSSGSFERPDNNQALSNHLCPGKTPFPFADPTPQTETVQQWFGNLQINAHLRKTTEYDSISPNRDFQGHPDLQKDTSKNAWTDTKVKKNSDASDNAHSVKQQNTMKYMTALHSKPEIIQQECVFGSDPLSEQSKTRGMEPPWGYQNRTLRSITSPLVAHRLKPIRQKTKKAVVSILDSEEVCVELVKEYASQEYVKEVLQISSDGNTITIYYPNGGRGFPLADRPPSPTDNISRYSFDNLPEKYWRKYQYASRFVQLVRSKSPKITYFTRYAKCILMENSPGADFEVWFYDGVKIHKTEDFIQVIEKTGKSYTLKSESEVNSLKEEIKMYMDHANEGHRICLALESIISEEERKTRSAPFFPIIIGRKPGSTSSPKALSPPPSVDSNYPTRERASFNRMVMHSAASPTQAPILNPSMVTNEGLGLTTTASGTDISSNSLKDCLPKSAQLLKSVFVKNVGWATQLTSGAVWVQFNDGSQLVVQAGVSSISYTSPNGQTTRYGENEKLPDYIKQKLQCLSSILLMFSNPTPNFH

[6] = molecular target: T2, 5'-AMP-activated protein kinase catalytic subunit alpha-1; experiment: Selectivity interaction (KinomeScan (DiscoverX)) EUB0000618a PRKAA1; conditions: at 10 µM
[7] = molecular target: T4, Histone-arginine methyltransferase CARM1 (Homo sapiens) (UniProt Q86X55); conditions: KMS-27, at 3 µM
T4 sequence (whole entry): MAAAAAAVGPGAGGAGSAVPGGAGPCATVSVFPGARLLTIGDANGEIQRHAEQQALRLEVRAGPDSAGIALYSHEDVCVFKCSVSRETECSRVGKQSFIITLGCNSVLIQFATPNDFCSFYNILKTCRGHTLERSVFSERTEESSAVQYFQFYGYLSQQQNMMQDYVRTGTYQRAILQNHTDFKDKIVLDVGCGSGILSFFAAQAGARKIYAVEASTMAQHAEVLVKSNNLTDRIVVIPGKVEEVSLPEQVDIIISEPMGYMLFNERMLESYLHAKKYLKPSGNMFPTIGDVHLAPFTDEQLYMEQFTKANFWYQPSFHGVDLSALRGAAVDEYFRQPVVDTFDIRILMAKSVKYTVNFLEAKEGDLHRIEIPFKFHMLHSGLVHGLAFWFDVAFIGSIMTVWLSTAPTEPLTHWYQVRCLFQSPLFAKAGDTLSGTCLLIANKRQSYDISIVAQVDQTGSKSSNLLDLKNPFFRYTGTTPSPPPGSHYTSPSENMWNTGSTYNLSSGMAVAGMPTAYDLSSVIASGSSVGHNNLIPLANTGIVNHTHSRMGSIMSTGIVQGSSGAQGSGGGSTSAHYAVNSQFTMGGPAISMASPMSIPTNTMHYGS

Sequence of Tyrosine-protein kinase Fyn (Homo sapiens) (P06241 2-537 limits assumed): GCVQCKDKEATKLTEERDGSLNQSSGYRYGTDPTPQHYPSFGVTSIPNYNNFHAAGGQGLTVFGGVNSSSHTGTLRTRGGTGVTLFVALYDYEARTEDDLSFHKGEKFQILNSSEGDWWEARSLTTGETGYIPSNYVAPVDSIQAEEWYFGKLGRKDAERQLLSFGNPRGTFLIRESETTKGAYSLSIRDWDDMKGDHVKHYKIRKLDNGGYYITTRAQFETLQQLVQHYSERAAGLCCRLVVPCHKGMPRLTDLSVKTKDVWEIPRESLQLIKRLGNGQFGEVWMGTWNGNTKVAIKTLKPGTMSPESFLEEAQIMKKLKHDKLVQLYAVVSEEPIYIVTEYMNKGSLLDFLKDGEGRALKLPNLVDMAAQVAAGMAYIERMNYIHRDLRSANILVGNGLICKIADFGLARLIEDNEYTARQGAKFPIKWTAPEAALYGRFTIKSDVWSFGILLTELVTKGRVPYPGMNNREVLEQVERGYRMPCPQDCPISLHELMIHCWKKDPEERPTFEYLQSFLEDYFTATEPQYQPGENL
T2 sequence (Q13131 whole entry, looked up): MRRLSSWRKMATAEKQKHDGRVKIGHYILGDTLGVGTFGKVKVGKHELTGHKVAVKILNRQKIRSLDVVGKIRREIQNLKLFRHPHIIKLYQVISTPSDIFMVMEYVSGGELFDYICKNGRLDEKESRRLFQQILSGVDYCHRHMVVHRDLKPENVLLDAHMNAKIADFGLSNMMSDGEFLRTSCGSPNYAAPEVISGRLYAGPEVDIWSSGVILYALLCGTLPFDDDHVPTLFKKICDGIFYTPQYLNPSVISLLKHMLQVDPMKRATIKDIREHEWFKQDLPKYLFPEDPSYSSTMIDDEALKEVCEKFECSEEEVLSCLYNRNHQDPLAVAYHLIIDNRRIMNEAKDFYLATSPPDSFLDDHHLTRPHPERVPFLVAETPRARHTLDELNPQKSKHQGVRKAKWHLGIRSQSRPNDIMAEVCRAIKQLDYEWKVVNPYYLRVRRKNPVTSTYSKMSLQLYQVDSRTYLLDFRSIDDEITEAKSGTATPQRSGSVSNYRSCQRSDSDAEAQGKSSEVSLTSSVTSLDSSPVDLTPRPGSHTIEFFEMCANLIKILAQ
Sequence of Ribosomal protein S6 kinase alpha-4 (Homo sapiens) (O75676 whole entry, looked up): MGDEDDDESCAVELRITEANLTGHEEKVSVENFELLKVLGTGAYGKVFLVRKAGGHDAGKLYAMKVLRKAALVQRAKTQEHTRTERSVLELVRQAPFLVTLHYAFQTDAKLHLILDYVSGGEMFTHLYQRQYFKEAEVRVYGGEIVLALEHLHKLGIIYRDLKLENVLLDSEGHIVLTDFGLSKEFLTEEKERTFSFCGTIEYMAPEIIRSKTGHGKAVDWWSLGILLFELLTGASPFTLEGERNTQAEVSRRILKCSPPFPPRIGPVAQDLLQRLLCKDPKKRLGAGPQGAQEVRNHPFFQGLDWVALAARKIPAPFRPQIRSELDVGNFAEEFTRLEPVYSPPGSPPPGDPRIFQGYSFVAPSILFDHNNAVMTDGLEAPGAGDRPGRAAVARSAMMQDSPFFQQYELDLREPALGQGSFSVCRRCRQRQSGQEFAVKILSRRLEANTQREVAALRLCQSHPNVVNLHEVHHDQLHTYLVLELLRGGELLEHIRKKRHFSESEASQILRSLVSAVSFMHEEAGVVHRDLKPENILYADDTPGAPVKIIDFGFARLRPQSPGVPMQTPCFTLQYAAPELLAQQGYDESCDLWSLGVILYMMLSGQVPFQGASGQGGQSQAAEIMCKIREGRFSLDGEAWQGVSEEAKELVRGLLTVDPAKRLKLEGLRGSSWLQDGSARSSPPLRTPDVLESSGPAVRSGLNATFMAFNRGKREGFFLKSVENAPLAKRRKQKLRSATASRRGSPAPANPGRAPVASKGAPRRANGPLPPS

Molecule `CCN(CC)CCCCNc1ncc2cc(-c3cc(OC)cc(OC)c3)c(NC(=O)NC(C)(C)C)nc2n1` has a % of control [1] of 100%.
Work on `COc1cc(N(C)c2ccnc3ccc(C(F)(F)F)cc23)cc(OC)c1OC` yielded a % binding [2] of 75%.
`C=CC(=O)Nc1cccc(C(=O)Nc2ccc(Nc3cc(-c4[nH]c(SC)nc4C)ccn3)cc2)c1` gave a % of control ([3]; at 1 µM) of 101% and a % of control ([3]; at 5 µM) of 100%.
`CC[C@@H]1[C@H](F)C(=O)N[C@@H]1COc1nccc2cc(C(N)=O)c(OC)cc12` [ZIMLOVISERTIB] showed a % of inhibition [4] of 11%.
Molecule `Cc1cc(F)c(C(=O)Nc2cccc(-c3nncn3C(C)C)n2)cc1-n1cnc(C2CC2)c1` has a % of control [5] of 100%.
With `O[C@H]1CC[C@H](Nc2ncc3nc(Nc4c(F)cc(F)cc4F)n([C@H]4CCOC4)c3n2)CC1` the % of control [6] was 99%.
With `CNCCN1CCC(c2cc(CN(C)C(=O)c3cccc(Oc4ccccc4)c3)ccn2)CC1` the % of growth rate [7] was -17.2%.
